The values that follow come from US12590062B2, “PD-1/PD-L1 inhibitors” (Gilead Sciences, Inc., priority 2017, dated 2026).

The target in one experiment is T1, PD-1/PD-L1 interaction (Homo sapiens, UniProt Q9NZQ7).
T1 construct: expressed in transfected cells; host or cells: CHO cells (aAPC-PD-L1) co-cultured with Jurkat cells overexpressing PD-1 and an NFAT-luciferase reporter
Description: PD-1/PD-L1 NFAT reporter co-culture assay. Format: cell-based. Conditions: Jurkat PD-1 NFAT-luciferase cells co-cultured with aAPC-PD-L1 CHO cells, 6 hrs at 37° C.; read-out: EC50 NFAT Luciferase. In a few lines:
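Restoration of TCR-driven NFAT luciferase signal: 6 h, 37 °C co-culture of PD-1 Jurkat reporter cells (pre-mixed with compound) on overnight-seeded PD-L1/anti-CD3 CHO monolayer. ONE-Glo luminescence; dose-response fitted to four-parameter equation for EC50.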

The target in the next experiment is PD-1/PD-L1 (Homo sapiens, UniProt Q9NZQ7). Description: PD-1/PD-L1 biochemical protein-protein interaction assay (ALPHA). Format: binding. Conditions: 0.3 nM His tagged PD-L1, 2.5 nM biotinylated Fc-PD-1, 60 minutes at 25° C., read-out: IC50 PD-L1-PD-1 Alpha IC50-mono PD-L1-fcP-D1. A digest of the protocol:
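IC50 values derive from four-parameter fits of ALPHA signal decrease. Assay: 0.3 nM His-tagged PD-L1 with 2.5 nM biotinylated Fc-PD-1, Hepes pH 7.4 with 0.005% Tween 20 and 0.01% BSA, 60 min at 25° C, then anti-His acceptor and streptavidin donor beads.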

Experiment [1] concerns the target T2, interaction between the recombinant extracellular domain (ECD) of PD-1 and native cell-bound PD-L1 (Homo sapiens, UniProt Q9NZQ7).
T2 construct: expressed in transfected cells
The experiment is described as follows: CHO/PD-L1 cell capture assay. Format: cell-based. Conditions: CHO cells overexpressing PD-L1, pre-incubated 1 hr with compound, captured on biotinylated Fc-PD-1 coated plates, 75 min at room temperature. A digest of the protocol: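 EC50 values came from four-parameter fits of counts of Draq5-stained CHO-PD-L1 cells retained on plate-bound biotinylated Fc-PD-1 ECD, enumerated by high-content imaging. Cells in PBS pH 7.4 with EDTA and 2% BSA had 1 hr compound pre-incubation, then 75 min capture at room temperature.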

The structures appear in SMILES notation.

T1 sequence (Q9NZQ7 19-290): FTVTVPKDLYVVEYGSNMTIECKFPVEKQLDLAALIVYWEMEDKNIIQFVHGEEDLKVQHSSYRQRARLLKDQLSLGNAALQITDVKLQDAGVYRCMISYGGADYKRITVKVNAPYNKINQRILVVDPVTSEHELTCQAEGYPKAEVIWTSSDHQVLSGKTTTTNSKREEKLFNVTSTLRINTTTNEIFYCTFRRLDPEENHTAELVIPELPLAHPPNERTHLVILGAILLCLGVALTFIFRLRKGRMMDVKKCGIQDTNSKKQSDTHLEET
T2 sequence (Q9NZQ7 19-290): as above
PD-1/PD-L1, sequence (Q9NZQ7 19-238 limits assumed): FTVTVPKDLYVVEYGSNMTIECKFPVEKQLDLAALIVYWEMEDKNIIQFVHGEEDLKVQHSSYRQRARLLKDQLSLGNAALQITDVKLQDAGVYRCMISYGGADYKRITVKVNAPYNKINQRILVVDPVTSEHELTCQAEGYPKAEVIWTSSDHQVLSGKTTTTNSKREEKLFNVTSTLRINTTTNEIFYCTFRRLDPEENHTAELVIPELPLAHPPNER

The EC50 is the concentration giving half of the maximal effect. By IC50 is commonly meant the midpoint of a concentration-inhibition curve. `COc1nc(O[C@H]2CCc3c(-c4cccc5c4CC[C@@H]5Oc4nc(OC)c(CN[C@@](C)(CO)C(=O)O)cc4Br)cccc32)c(Br)cc1CN[C@@](C)(CO)C(=O)O` [Example 5, (2S,2′S)-2,2′-((((((1S,1′S)-2,2′,3,3′-tetrahydro-1H,1′H-[4,4′-biindene]-1,1′-diyl)bis(oxy))bis(5-bromo-2-methoxypyridine-6,3-diyl))bis(methylene))bis(azanediyl))bis(3-hydroxy-2-methylpropanoic acid)]: the EC50 at PD-1/PD-L1 interaction turned out to be 29 nM; in experiment [1] it was 38.1 nM. Moreover, at PD-1/PD-L1, the IC50 was found to be 0.1 nM.
For `Cc1c(COc2nc(OCc3cncc(C#N)c3)c(CNCCO)cc2Cl)cccc1-c1cccc(COc2nc(OCc3cncc(C#N)c3)c(CNCCO)cc2Cl)c1C` [Example 35, 5,5′-((((((2,2′-dimethyl-[1,1′-biphenyl]-3,3′-diyl)bis(methylene))bis(oxy))bis(5-chloro-3-(((2-hydroxyethyl)amino)methyl)pyridine-6,2-diyl))bis(oxy))bis(methylene))dinicotinonitrile] the same measures were 296 nM, 264 nM and 15.6 nM.
On to `Cc1c(COc2nc(OCc3cncnc3)c(CNC[C@@H](O)CC(=O)O)cc2Br)cccc1-c1cccc(COc2nc(OCc3cncnc3)c(CNC[C@@H](O)CC(=O)O)cc2Br)c1C` [Example 126, (3S,3′S)-4,4′-((((((2,2′-dimethyl-[1,1′-biphenyl]-3,3′-diyl)bis(methylene))bis(oxy))bis(5-bromo-2-(pyrimidin-5-ylmethoxy)pyridine-6,3-diyl))bis(methylene))bis(azanediyl))bis(3-hydroxybutanoic acid)], for which the values for the EC50 (on PD-1/PD-L1 interaction; in experiment [1]) were 327 nM and 180 nM, respectively. At PD-1/PD-L1, the IC50 is 0.1 nM.
For `Cc1c(COc2cc(OCC3CCOC3)c(CNC[C@@H](O)CC(=O)O)cc2Cl)cccc1-c1cccc(COc2cc(OCC3CCOC3)c(CNC[C@@H](O)CC(=O)O)cc2Cl)c1C` (stereo partly drawn) [Example 280, (3S,3′S)-4,4′-((((((2,2′-dimethyl-[1,1′-biphenyl]-3,3′-diyl)bis(methylene))bis(oxy))bis(5-chloro-2-((tetrahydrofuran-3-yl)methoxy)-4,1-phenylene))bis(methylene))bis(azanediyl))bis(3-hydroxybutanoic acid)] the same measures were 592 nM, 208 nM and 0.3 nM.
Take `Cc1c(COc2ccc(CNC[C@@H](O)CC(=O)O)c(OCc3cncc(C#N)c3)n2)cccc1-c1cccc(COc2ccc(CNC[C@@H](O)CC(=O)O)c(OCc3cncc(C#N)c3)n2)c1C` [Example 242, (3S,3′S)-4,4′-((((((2,2′-dimethyl-[1,1′-biphenyl]-3,3′-diyl)bis(methylene))bis(oxy))bis(2-((5-cyanopyridin-3-yl)methoxy)pyridine-6,3-diyl))bis(methylene))bis(azanediyl))bis(3-hydroxybutanoic acid)]: the EC50 at PD-1/PD-L1 interaction is 288 nM; in experiment [1], 129 nM. Further, the IC50 on PD-1/PD-L1 turned out to be 0.2 nM.
For `Cc1c(COc2nc(OCc3cncc(S(C)(=O)=O)c3)c(CNC[C@@H](O)CC(=O)O)cc2Br)cccc1-c1cccc(COc2nc(OCc3cncc(S(C)(=O)=O)c3)c(CNC[C@@H](O)CC(=O)O)cc2Br)c1C` [Example 42, (3S,3′S)-4,4′-((((((2,2′-dimethyl-[1,1′-biphenyl]-3,3′-diyl)bis(methylene))bis(oxy))bis(5-bromo-2-((5-(methylsulfonyl)pyridin-3-yl)methoxy)pyridine-6,3 diyl))bis(methylene))bis(azanediyl))bis(3-hydroxybutanoic acid)] the same measures were 123 nM, 149 nM and 0.3 nM.
For `Cc1c(COc2nc(OCC(N)=O)c(CNC[C@@H](O)CC(=O)O)cc2Br)cccc1-c1cccc(COc2nc(OCC(N)=O)c(CNC[C@@H](O)CC(=O)O)cc2Br)c1C` [Example 155, (3S,3′S)-4,4′-((((((2,2′-dimethyl-[1,1′-biphenyl]-3,3′-diyl)bis(methylene))bis(oxy))bis(2-(2-amino-2-oxoethoxy)-5-bromopyridine-6,3-diyl))bis(methylene))bis(azanediyl))bis(3-hydroxybutanoic acid)] the same measures were 6490 nM, 211 nM and 0.2 nM.
For `Cc1c(COc2cc(OCc3cncc(C#N)c3)c(CNCCO)cc2Cl)cccc1-c1cccc2c1CCN2C(=O)c1ccc(CNCCO)c(OCc2cncc(C#N)c2)c1` [Example 205, 5-((4-Chloro-5-((3-(1-(3-((5-cyanopyridin-3-yl)methoxy)-4-(((2-hydroxyethyl)amino)methyl)benzoyl)indolin-4-yl)-2-methylbenzyl)oxy)-2-(((2-hydroxyethyl)amino)methyl)phenoxy)methyl)nicotinonitrile] the same measures were 1430 nM, 394 nM and 6.9 nM.
As to `COc1nc(OCc2cccc(-c3cccc(COc4nc(OC)c(CNC[C@H](O)C(=O)O)cc4Cl)c3C)c2C)c(Cl)cc1CNC[C@H](O)C(=O)O` [Example 166, (2S,2′S)-3,3′-((((((2,2′-dimethyl-[1,1′-biphenyl]-3,3′-diyl)bis(methylene))bis(oxy))bis(5-chloro-2-methoxypyridine-6,3-diyl))bis(methylene))bis(azanediyl))bis(2-hydroxypropanoic acid)], the EC50 at PD-1/PD-L1 interaction was 139 nM; in experiment [1], 41.6 nM. Besides, the IC50 on PD-1/PD-L1 amounted to 2 nM.
For `Cc1c(COc2nc(OCCN3CCOCC3)c(CNC[C@@H](O)CC(=O)O)cc2Cl)cccc1-c1cccc(COc2nc(OCCN3CCOCC3)c(CNC[C@@H](O)CC(=O)O)cc2Cl)c1C` [Example 159, (3S,3′S)-4,4′-((((((2,2′-dimethyl-[1,1′-biphenyl]-3,3′-diyl)bis(methylene))bis(oxy))bis(5-chloro-2-(2-morpholinoethoxy)pyridine-6,3-diyl))bis(methylene))bis(azanediyl))bis(3-hydroxybutanoic acid)] the same measures were 538 nM, 190 nM and 0.5 nM.
For `COc1nc(OCc2cccc(-c3cccc(COc4nc(OC)c(CNC[C@@H](O)CC(=O)O)cc4C(F)(F)F)c3C)c2C)c(C(F)(F)F)cc1CNC[C@@H](O)CC(=O)O` [Example 160, (3S,3′S)-4,4′-((((((2,2′-dimethyl-[1,1′-biphenyl]-3,3′-diyl)bis(methylene))bis(oxy))bis(2-methoxy-5-(trifluoromethyl)pyridine-6,3-diyl))bis(methylene))bis(azanediyl))bis(3-hydroxybutanoic acid)] the same measures were 139 nM, 191 nM and 0.6 nM.
On to `COc1nc(OCc2cccc(-c3cccc(COc4nc(OC)c(CNC[C@@H](O)CC(=O)O)cc4C#N)c3C)c2C)c(C#N)cc1CNC[C@@H](O)CC(=O)O` [Example 243, (3S,3′S)-4,4′-((((((2,2′-dimethyl-[1,1′-biphenyl]-3,3′-diyl)bis(methylene))bis(oxy))bis(5-cyano-2-methoxypyridine-6,3-diyl))bis(methylene))bis(azanediyl))bis(3-hydroxybutanoic acid)], for which the figures for the EC50 (on PD-1/PD-L1 interaction; in experiment [1]) were 393 nM and 90.6 nM, respectively. On PD-1/PD-L1, the IC50 came out at 0.2 nM.
As to `Cc1c(COc2cc(OCc3cncc(C#N)c3)c(CNC[C@@H](O)CC(N)=O)cc2Cl)cccc1-c1cccc(COc2cc(OCc3cncc(C#N)c3)c(CNC[C@@H](O)CC(N)=O)cc2Cl)c1C` [Example 165, (3S,3′S)-4,4′-((((((2,2′-dimethyl-[1,1′-biphenyl]-3,3′-diyl)bis(methylene))bis(oxy))bis(5-chloro-2-((5-cyanopyridin-3-yl)methoxy)-4,1-phenylene))bis(methylene))bis(azanediyl))bis(3-hydroxybutanamide)], the EC50 at PD-1/PD-L1 interaction amounted to 352 nM; in experiment [1], 156 nM. For the same compound, the IC50 on PD-1/PD-L1 stood at 5.8 nM.
For `Cc1c(COc2cc(OCc3cncc(C#N)c3)c(CNCCO)cc2Cl)cccc1-c1cccc(COc2cc(OCc3cncc(C#N)c3)c(CNCCO)cc2Cl)c1` [Example 20, 5,5′-((((((2-methyl-[1,1′-biphenyl]-3,3′-diyl)bis(methylene))bis(oxy))bis(4-chloro-6-(((2-hydroxyethyl)amino)methyl)-3,1-phenylene))bis(oxy))bis(methylene))dinicotinonitrile], the figures for the EC50 (at PD-1/PD-L1 interaction; in experiment [1]) were 1200 nM and 752 nM, respectively. For the same compound, the IC50 at PD-1/PD-L1 was determined as 12.6 nM.
For `Cc1c(COc2nc(OCc3cncc(C#N)c3)c(CNC[C@H](O)CC(=O)O)cc2Cl)cccc1-c1cccc(COc2nc(OCc3cncc(C#N)c3)c(CNC[C@H](O)CC(=O)O)cc2Cl)c1C` [Example 32, (3R,3′R)-4,4′-((((((2,2′-dimethyl-[1,1′-biphenyl]-3,3′-diyl)bis(methylene))bis(oxy))bis(5-chloro-2-((5-cyanopyridin-3-yl)methoxy)pyridine-6,3-diyl))bis(methylene))bis(azanediyl))bis(3-hydroxybutanoic acid)] the same measures were 127 nM, 42.1 nM and 0.3 nM.
